# Patent publication US4547502A, “Dihydropyridines and their use in treating cardiac conditions and hypertension” (Pfizer Inc., priority 1982, dated 1985)
# Tested on: spirally cut strips of rat aorta
# Experiment: Inhibition of calcium-induced contraction of isolated rat aorta strips (concentration required to reduce the response by 50%)
# Assay type: cell-based
# Conditions: 0.75 h, in vitro, 45 millimolar potassium, contraction by calcium chloride, final calcium 2 millimolar, retest after 45 minutes with compound present, read-out: IC50 (molar concentration of the compounds required to reduce the response by 50%)
# Method: The ability of the compounds to inhibit the movement of calcium into the cell is shown by their effectiveness in reducing the response of isolated […] to an increase in calcium ion concentration in vitro. The test is performed by mounting spirally cut strips of rat aorta with one end fixed and the other attached to a force tranducer. The tissue is immersed in a bath of physiological saline solution containing potassium ions at a concentration of 45 millimolar and no calcium. Calcium chloride is added to the bath with a pipette to give a final calcium ion concentration of 2 millimolar. The change in tension caused by the resulting contraction of the tissue is noted. The bath is drained and replaced with fresh saline solution and, after 45 minutes, the test is repeated with the particular compound under test present in the saline solution. The concentration of compound required to reduce the response by 50% is recorded.
row,IC50 [nM],SMILES
1,38,"CCOC(=O)C1=C(COCCN2CCN(c3nc(N)n[nH]3)CC2)NC(C)=C(C(=O)OC)C1c1ccccc1Cl (stereo not shown) [Example 5, 2-{2-[4-(5-Amino-1,2,4-triazol-3-yl)piperazine-1-yl]ethoxymethyl}-4-(2-chlorophenyl)-3-ethoxycarbonyl-5-methoxycarbonyl-6-methyl-1,4-dihydropyridine, bis-maleate hemihydrate]"
2,100,CCOC(=O)C1=C(COCCN2CCN(C3=NCCN3)CC2)NC(C)=C(C(=O)OC)C1c1ccccc1Cl (stereo not shown) [Example 2]
3,100,"CCOC(=O)C1=C(COCCN2CCN(c3nc(N)nn3C)CC2)NC(C)=C(C(=O)OC)C1c1ccccc1Cl (single isomer, unassigned) [Example 6 (more polar isomer), 2-[2-(4-{3-amino-1-methyl-1,2,4-triazol-5-yl}-piperazin-1-yl)ethoxymethyl]-4-(2-chlorophenyl)-3-ethoxycarbonyl-5-methoxycarbonyl-6-methyl-1,4-dihydropyridine hemihydrate]"
4,15,CCOC(=O)C1=C(COCCN2CCN(c3nccs3)CC2)NC(C)=C(C(=O)OC)C1c1ccccc1Cl (stereo not shown) [Example 4]
5,141,"CCOC(=O)C1=C(COCCN2CCN(C3=NCCC3)CC2)NC(C)=C(C(=O)OC)C1c1ccccc1Cl (stereo not shown) [Example 1, 2-[2-(4-(1-Pyrrolin-2-yl)-piperazin-1-yl)ethoxymethyl]-4-(2-chlorophenyl)-3-ethoxycarbonyl-5-methoxycarbonyl-6-methyl-1,4-dihydropyridine]"
6,36,CCOC(=O)C1=C(COCCN2CCN(c3nccc(=O)[nH]3)CC2)NC(C)=C(C(=O)OC)C1c1ccccc1Cl (stereo not shown) [Example 3]
7,26,"CCOC(=O)C1=C(COCCN2CCN(c3nc(N)n(C)n3)CC2)NC(C)=C(C(=O)OC)C1c1ccccc1Cl (stereo not drawn) [Example 6 (least polar isomer), 2-[2-(4-{5-amino-1-methyl-1,2,4-triazol-3-yl}-piperazin-1-yl)ethoxymethyl]-4-(2-chlorophenyl)-3-ethoxycarbonyl-5-methoxycarbonyl-6-methyl-1,4-dihydropyridine]"
